In US20240383886A1, “Protein Tyrosine Phosphatase Degraders and Methods of Use Thereof” (CALICO LIFE SCIENCES LLC, priority 2019, published 2024):

Key:
PTPN2 [1] = assay: HiBiT-Degradation B16F10.4 PTPN2; assay type: cell-based; details: B16F10.4 cells, 24.0 hours
PTPN2 [2] = molecular target: T1, PTPN2 (Homo sapiens, UniProt P17706); assay: HiBiT-Degradation 293T.109 PTPN2 (Nano-Glo HiBiT Lytic Assay); assay type: cell-based; details: 293T.109 (HiBiT-PTPN2) cells, 24.0 hours
T1 construct: expressed in transfected cells; host or cells: 293T (293T.109 HiBiT-PTPN2 line; parental 293T WT from ATCC)
T1 sequence (P17706 1-415): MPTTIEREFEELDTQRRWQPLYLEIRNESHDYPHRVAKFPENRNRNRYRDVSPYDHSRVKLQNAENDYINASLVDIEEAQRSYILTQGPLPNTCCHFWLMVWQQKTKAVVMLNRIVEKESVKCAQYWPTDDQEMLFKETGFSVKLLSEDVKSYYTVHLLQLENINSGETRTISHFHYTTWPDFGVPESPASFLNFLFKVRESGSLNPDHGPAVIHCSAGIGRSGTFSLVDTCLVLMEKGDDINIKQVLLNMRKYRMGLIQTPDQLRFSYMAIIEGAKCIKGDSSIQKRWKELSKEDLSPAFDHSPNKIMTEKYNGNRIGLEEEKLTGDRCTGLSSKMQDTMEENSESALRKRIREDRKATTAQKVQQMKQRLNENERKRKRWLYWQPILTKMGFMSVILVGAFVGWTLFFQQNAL
How it was run: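 293T cells ectopically expressing N-terminally HiBiT-tagged PTPN2 were seeded at 5000 cells/well. They were treated with an 11-point half-log titration from 10 μM, in duplicate, for 24 hours at 37° C., 5% CO2. Remaining tagged PTPN2 was quantified by lytic HiBiT luminescence against untreated and no-reagent controls.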

| SMILES | DC50 (PTPN2 [1]) [nM] | DC50 (PTPN2 [2]) [nM] |
| --- | --- | --- |
| Cn1c(=O)n([C@H]2CCC(=O)NC2=O)c2ccc(C3CCN(CC(=O)NCCOc4ccc5cc(O)c(N6CC(=O)NS6(=O)=O)c(F)c5c4)CC3)cc21 [Example 93, 2-[4-[1-[(3S)-2,6-dioxo-3-piperidyl]-3-methyl-2-oxo-benzimidazol-5-yl]-1-piperidyl]-N-[2-[[8-fluoro-6-hydroxy-7-(1,1,4-trioxo-1,2,5-thiadiazolidin-2-yl)-2-naphthyl]oxy]ethyl]acetamide] | 50 to 200 | 10 to 50 |
| CN(c1ccc(C2CCN(CC(=O)NCCOc3ccc4cc(O)c(N5CC(=O)NS5(=O)=O)c(F)c4c3)CC2)cc1)C1CCC(=O)NC1=O (stereo not shown) [Example 94, 2-[4-[4-[(2,6-dioxo-3-piperidyl)-methyl-amino]phenyl]-1-piperidyl]-N-[2-[[8-fluoro-6-hydroxy-7-(1,1,4-trioxo-1,2,5-thiadiazolidin-2-yl)-2-naphthyl]oxy]ethyl]acetamide] | 200 to 1000 | 200 to 1000 |
| Cn1c(=O)n(C2CCC(=O)NC2=O)c2ccc(C3CCN(CCCCCOc4ccc5cc(O)c(N6CC(=O)NS6(=O)=O)c(F)c5c4)CC3)cc21 (stereo not shown) [Example 95, 3-[5-[1-[5-[[8-fluoro-6-hydroxy-7-(1,1,4-trioxo-1,2,5-thiadiazolidin-2-yl)-2-naphthyl]oxy]pentyl]-4-piperidyl]-3-methyl-2-oxo-benzimidazol-1-yl]piperidine-2,6-dione] | 50 to 200 | 10 to 50 |
| O=C(CN1CCC(c2ccc(NC3CCC(=O)NC3=O)c(Oc3ccccc3)c2)CC1)NCCOc1ccc2cc(O)c(N3CC(=O)NS3(=O)=O)c(F)c2c1 (stereo not shown) [Example 96, 2-[4-[4-[(2,6-dioxo-3-piperidyl)amino]-3-phenoxy-phenyl]-1-piperidyl]-N-[2-[[8-fluoro-6-hydroxy-7-(1,1,4-trioxo-1,2,5-thiadiazolidin-2-yl)-2-naphthyl]oxy]ethyl]acetamide] | 50 to 200 | 50 to 200 |
| CN(CCOc1ccc2cc(O)c(N3CC(=O)NS3(=O)=O)c(F)c2c1)C(=O)CN1CCC(c2ccc3c(c2)n(C)c(=O)n3C2CCC(=O)NC2=O)CC1 (stereo not shown) [Example 97, 2-[4-[1-(2,6-dioxo-3-piperidyl)-3-methyl-2-oxo-benzimidazol-5-yl]-1-piperidyl]-N-[2-[[8-fluoro-6-hydroxy-7-(1,1,4-trioxo-1,2,5-thiadiazolidin-2-yl)-2-naphthyl]oxy]ethyl]-N-methyl-acetamide] | 200 to 1000 | 50 to 200 |
| Cn1c(=O)n(C2CCC(=O)NC2=O)c2ccc(C3CCN(CCCCCCOc4ccc5cc(O)c(N6CC(=O)NS6(=O)=O)c(F)c5c4)CC3)cc21 (stereo not shown) [Example 98, 3-[5-[1-[6-[[8-fluoro-6-hydroxy-7-(1,1,4-trioxo-1,2,5-thiadiazolidin-2-yl)-2-naphthyl]oxy]hexyl]-4-piperidyl]-3-methyl-2-oxo-benzimidazol-1-yl]piperidine-2,6-dione] | 50 to 200 | 10 to 50 |
| Cn1c(=O)n(C2CCC(=O)NC2=O)c2ccc(N3CCC(CNC(=O)c4ccc5c(F)c(N6CC(=O)NS6(=O)=O)c(O)cc5c4)CC3)cc21 (stereo not shown) [Example 99, N-[[1-[1-(2,6-dioxo-3-piperidyl)-3-methyl-2-oxo-benzimidazol-5-yl]-4-piperidyl]methyl]-5-fluoro-7-hydroxy-6-(1,1,4-trioxo-1,2,5-thiadiazolidin-2-yl)naphthalene-2-carboxamide] | 50 to 200 | 50 to 200 |
| Cn1c(=O)n(C2CCC(=O)NC2=O)c2ccc(C3CCN(CC(=O)NCCOc4ccc5cc(O)c(N6CC(=O)NS6(=O)=O)c(Cl)c5c4)CC3)cc21 (stereo not shown) [Example 100, N-[2-[[8-chloro-6-hydroxy-7-(1,1,4-trioxo-1,2,5-thiadiazolidin-2-yl)-2-naphthyl]oxy]ethyl]-2-[4-[1-(2,6-dioxo-3-piperidyl)-3-methyl-2-oxo-benzimidazol-5-yl]-1-piperidyl]acetamide] | 200 to 1000 | 200 to 1000 |
| O=C1CCC(Nc2ccc(C3CCN(CC(=O)Nc4ccc5c(F)c(N6CC(=O)NS6(=O)=O)c(O)cc5c4)CC3)cc2Oc2ccccc2)C(=O)N1 (stereo not shown) [Example 101, 2-[4-[4-[(2,6-dioxo-3-piperidyl)amino]-3-phenoxy-phenyl]-1-piperidyl]-N-[5-fluoro-7-hydroxy-6-(1,1,4-trioxo-1,2,5-thiadiazolidin-2-yl)-2-naphthyl]acetamide] | ≥ 1000 | 200 to 1000 |
| Cn1c(=O)n(C2CCC(=O)NC2=O)c2ccc(C3=CCC(CNC(=O)c4ccc5c(F)c(N6CC(=O)NS6(=O)=O)c(O)cc5c4)CC3)cc21 (stereo not shown) [Example 102] | 200 to 1000 | 200 to 1000 |
| Cn1c(=O)n(C2CCC(=O)NC2=O)c2ccc(N3CCC(CC(=O)N4CC=C(c5ccc6cc(O)c(N7CC(=O)NS7(=O)=O)c(F)c6c5)C4)CC3)cc21 (stereo not shown) [Example 103, 3-[5-[4-[2-[3-[8-fluoro-6-hydroxy-7-(1,1,4-trioxo-1,2,5-thiadiazolidin-2-yl)-2-naphthyl]-2,5-dihydropyrrol-1-yl]-2-oxo-ethyl]-1-piperidyl]-3-methyl-2-oxo-benzimidazol-1-yl]piperidine-2,6-dione] | 50 to 200 | 200 to 1000 |
| Cn1c(=O)n(C2CCC(=O)NC2=O)c2ccc(Nc3ccc(C(=O)Nc4ccc5c(F)c(N6CC(=O)NS6(=O)=O)c(O)cc5c4)cc3)cc21 (stereo not shown) [Example 104, 4-[[1-(2,6-dioxo-3-piperidyl)-3-methyl-2-oxo-benzimidazol-5-yl]amino]-N-[5-fluoro-7-hydroxy-6-(1,1,4-trioxo-1,2,5-thiadiazolidin-2-yl)-2-naphthyl]benzamide] | 50 to 200 | 50 to 200 |
| Cn1c(=O)n(C2CCC(=O)NC2=O)c2ccc(Nc3ccc(CC(=O)Nc4ccc5c(F)c(N6CC(=O)NS6(=O)=O)c(O)cc5c4)cc3)cc21 (stereo not shown) [Example 105, 2-[4-[[1-(2,6-dioxo-3-piperidyl)-3-methyl-2-oxo-benzimidazol-5-yl]amino]phenyl]-N-[5-fluoro-7-hydroxy-6-(1,1,4-trioxo-1,2,5-thiadiazolidin-2-yl)-2-naphthyl]acetamide] | 10 to 50 | 10 to 50 |
| Cn1c(=O)n(C2CCC(=O)NC2=O)c2ccc(-c3ccc(CNC(=O)c4ccc5c(F)c(N6CC(=O)NS6(=O)=O)c(O)cc5c4)cc3)cc21 (stereo not shown) [Example 106] | 200 to 1000 | 200 to 1000 |
| Cn1c(=O)n(C2CCC(=O)NC2=O)c2ccc(C3CCN(CCS(=O)(=O)N4CC=C(c5ccc6cc(O)c(N7CC(=O)NS7(=O)=O)c(F)c6c5)C4)CC3)cc21 (stereo not shown) [Example 107, 3-(5-(1-(2-((3-(7-(1,1-dioxido-4-oxo-1,2,5-thiadiazolidin-2-yl)-8-fluoro-6-hydroxynaphthalen-2-yl)-2,5-dihydro-1H-pyrrol-1-yl)sulfonyl)ethyl)piperidin-4-yl)-3-methyl-2-oxo-2,3-dihydro-1H-benzo[d]imidazol-1-yl)piperidine-2,6-dione] | 50 to 200 | 50 to 200 |
| CN(c1ccc(C2CCN(CC(=O)Nc3ccc4c(F)c(N5CC(=O)NS5(=O)=O)c(O)cc4c3)CC2)cc1)C1CCC(=O)NC1=O (stereo not shown) [Example 108, 2-[4-[4-[(2,6-dioxo-3-piperidyl)-methyl-amino]phenyl]-1-piperidyl]-N-[5-fluoro-7-hydroxy-6-(1,1,4-trioxo-1,2,5-thiadiazolidin-2-yl)-2-naphthyl]acetamide] | ≥ 1000 | 200 to 1000 |
| Cn1c(=O)n(C2CCC(=O)NC2=O)c2ccc(N3CCC(C4CCN(C(=O)COc5ccc6cc(O)c(N7CC(=O)NS7(=O)=O)c(F)c6c5)CC4)CC3)cc21 (stereo not shown) [Example 109, 3-[5-[4-[1-[2-[[8-fluoro-6-hydroxy-7-(1,1,4-trioxo-1,2,5-thiadiazolidin-2-yl)-2-naphthyl]oxy]acetyl]-4-piperidyl]-1-piperidyl]-3-methyl-2-oxo-benzimidazol-1-yl]piperidine-2,6-dione] | 50 to 200 | 200 to 1000 |
| Cn1c(=O)n(C2CCC(=O)NC2=O)c2ccc(N3CCN(CCn4cc(-c5ccc6cc(O)c(N7CC(=O)NS7(=O)=O)c(F)c6c5)cn4)CC3)cc21 (stereo not shown) [Example 110, 3-[5-[4-[2-[4-[8-fluoro-6-hydroxy-7-(1,1,4-trioxo-1,2,5-thiadiazolidin-2-yl)-2-naphthyl]pyrazol-1-yl]ethyl]piperazin-1-yl]-3-methyl-2-oxo-benzimidazol-1-yl]piperidine-2,6-dione] | 50 to 200 | 10 to 50 |
| O=C(CCCCOc1ccc2cc(O)c(N3CC(=O)NS3(=O)=O)c(F)c2c1)NCCCc1ccc2c3c(cccc13)C(=O)N2C1CCC(=O)NC1=O (stereo not shown) [Example 111, N-[3-[1-(2,6-dioxo-3-piperidyl)-2-oxo-benzo[cd]indol-6-yl]propyl]-5-[[8-fluoro-6-hydroxy-7-(1,1,4-trioxo-1,2,5-thiadiazolidin-2-yl)-2-naphthyl]oxy]pentanamide] | 50 to 200 | 10 to 50 |
| Cn1c(=O)n(C2CCC(=O)NC2=O)c2ccc(C3CCN(CC(=O)N4CC(Oc5ccc6cc(O)c(N7CC(=O)NS7(=O)=O)c(F)c6c5)C4)CC3)cc21 (stereo not shown) [Example 112, 3-[5-[1-[2-[3-[[8-fluoro-6-hydroxy-7-(1,1,4-trioxo-1,2,5-thiadiazolidin-2-yl)-2-naphthyl]oxy]azetidin-1-yl]-2-oxo-ethyl]-4-piperidyl]-3-methyl-2-oxo-benzimidazol-1-yl]piperidine-2,6-dione] | 50 to 200 | 10 to 50 |
